Results: PubChem BioAssay (NCI)
Several values for one entry are separate records, joined by “and”; a condition that tells them apart may be missing. Equal values may be shown once.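 Five compound concentrations were applied to cells in 96-well plates for 48 hours; endpoints were derived by simple linear interpolation of the resulting dose-response curve. Abbreviation: GI50, concentration required for 50% inhibition of growth. TGI denotes the concentration required for complete inhibition of growth.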

What was measured:
Assay in all cases: NCI-60 cell line screen, 48 h
[1] = tested on: TK-10 renal
[2] = tested on: HT29 colon
[3] = tested on: RXF 393 renal
[4] = tested on: SK-MEL-5 melanoma
[5] = tested on: SNB-75 CNS
[6] = tested on: SN12C renal
[7] = tested on: SR leukemia
[8] = tested on: A498 renal
[9] = tested on: NCI/ADR-RES ovarian
[10] = tested on: OVCAR-8 ovarian

CN(C)CCCOc1ccc(NC2=C(Cl)C(=O)C(Nc3ccc(OCCCN(C)C)cc3)=C(Cl)C2=O)cc1
GI50 [1]: 1990 nM | TGI [1]: 3.41 µM | GI50 [2]: 237 nM | TGI [2]: 0.657 µM | GI50 [3]: 1190 nM | TGI [3]: 2.45 µM | GI50 [4]: 1310 nM | TGI [4]: 2.59 µM | GI50 [5]: 1780 nM | TGI [5]: 3.4 µM | GI50 [6]: 548 nM | TGI [6]: 1.05 µM | GI50 [7]: 312 nM | TGI [7]: 3250 nM | GI50 [8]: 1660 nM | TGI [8]: 3.32 µM | GI50 [9]: 1680 nM | TGI [9]: 4.72 µM | GI50 [10]: 0.446 µM | TGI [10]: 1.04 µM

O=[N+]([O-])/C=C/c1ccc2ccccc2c1
TGI [1]: 25.8 µM | TGI [3]: 5.72 µM | TGI [4]: 13.3 µM | TGI [5]: 5.17 µM | TGI [6]: 22.7 µM | TGI [7]: > 100000 nM | TGI [8]: 25.7 µM | TGI [9]: > 28 µM | TGI [10]: > 21.2 µM

NC(=O)c1nc(-c2c(F)cccc2Cl)oc1Nc1ccc(C(=O)N2CCOCC2)cc1
GI50 [1]: 2330 nM | TGI [1]: 34.2 µM | GI50 [2]: 1620 nM | TGI [2]: > 100 µM | GI50 [3]: 964 nM | TGI [3]: 5.54 µM | GI50 [4]: 10500 nM | TGI [4]: 35.8 µM | GI50 [6]: 2120 nM | TGI [6]: > 100 µM | GI50 [7]: 1000 nM | TGI [7]: 84700 nM | GI50 [8]: 544 nM | TGI [8]: 3.28 µM | GI50 [9]: 6230 nM | TGI [9]: > 100 µM | GI50 [10]: 5.83 µM | TGI [10]: > 100 µM

CCN(CC)CCNc1n[n+]([O-])c2cc([N+](=O)[O-])ccc2[n+]1[O-]
GI50 [1]: 2800 nM and 1420 nM and 1210 nM | TGI [1]: 14.7 µM and 8.94 µM and 5.88 µM | TGI [2]: 2.41 µM and 2.22 µM and 1.71 µM | TGI [3]: 5.14 µM and 4.28 µM and 3.03 µM | TGI [4]: 2.01 µM and 1.56 µM and 1.7 µM | GI50 [5]: 2010 nM and 1160 nM and 905 nM | TGI [5]: 14.5 µM and 14.3 µM and 10 µM | GI50 [6]: 675 nM and 249 nM and 255 nM | TGI [6]: 2.97 µM and 2.33 µM and 2.58 µM | GI50 [7]: 398 nM and 188 nM and 123 nM | TGI [7]: 1750 nM and 958 nM and 754 nM | TGI [8]: 7.99 µM and 4.69 µM and 6.23 µM | TGI [9]: 4.74 µM and 5.68 µM and 5.6 µM | TGI [10]: 1.99 µM and 1.7 µM and 1.53 µM

Cc1ccc(C(=O)Nc2ccc(Oc3cc4cnn(C)c4cc3-c3cn[nH]c3)c(F)c2)c(=O)n1-c1ccc(F)cc1
GI50 [1]: 1950 nM | TGI [1]: 35.1 µM | GI50 [2]: 3540 nM | TGI [2]: > 100 µM | GI50 [3]: 2230 nM | TGI [3]: > 100 µM | GI50 [4]: 5590 nM | TGI [4]: > 100 µM | GI50 [5]: 5610 nM | TGI [5]: > 100 µM | GI50 [6]: 3080 nM | TGI [6]: > 100 µM | GI50 [7]: > 38800 nM | TGI [7]: > 100000 nM | GI50 [8]: 404 nM | TGI [8]: > 100 µM | GI50 [9]: > 94100 nM | TGI [9]: > 100 µM | GI50 [10]: 48.8 µM | TGI [10]: > 100 µM

CN(C)C1C(=O)C(C(N)=O)=C(O)C2(O)C(=O)C3=C(O)c4c(O)cccc4C(C)(O)C3CC12.[Cl][Sb]([Cl])[Cl] (stereo not given)
GI50 [1]: 3850 nM | TGI [1]: 14.3 µM | GI50 [2]: 3790 nM | TGI [2]: 12.2 µM | GI50 [3]: 3030 nM | TGI [3]: 10.7 µM | GI50 [4]: 1780 nM | TGI [4]: 4.36 µM | GI50 [6]: 3910 nM | TGI [6]: 14.9 µM | GI50 [7]: 2880 nM | TGI [7]: 7360 nM | GI50 [8]: 2960 nM | TGI [8]: 11.4 µM | GI50 [9]: 3190 nM | TGI [9]: 16.6 µM | GI50 [10]: 3.37 µM | TGI [10]: 13.1 µM

S=C(Sc1ccc(Cl)cc1)Sc1ccc(Cl)cc1
GI50 [1]: 2530 nM | TGI [1]: 5.27 µM | GI50 [2]: 1950 nM | TGI [2]: 3.99 µM | GI50 [3]: 2040 nM | TGI [3]: 3.87 µM | GI50 [4]: 1680 nM | TGI [4]: 3.11 µM | GI50 [5]: 3500 nM | TGI [5]: 16.3 µM | GI50 [6]: 2120 nM | TGI [6]: 5.34 µM | GI50 [7]: 362 nM | TGI [7]: 2030 nM | GI50 [8]: 2910 nM | TGI [8]: 7.9 µM | GI50 [9]: 2670 nM | TGI [9]: 6.58 µM | GI50 [10]: 3.66 µM | TGI [10]: 12.6 µM

C#COc1cccc(Nc2ncnc3cc(NC(=O)[C@@H](C)Cl)ccc23)c1
GI50 [1]: 36500 nM | TGI [1]: > 62.5 µM | GI50 [2]: 2410 nM | TGI [2]: > 62.5 µM | GI50 [3]: 8120 nM | TGI [3]: 40.8 µM | GI50 [4]: 4090 nM | TGI [4]: 32.8 µM | GI50 [5]: 8030 nM | TGI [5]: 44.8 µM | GI50 [6]: 16800 nM | TGI [6]: > 62.5 µM | GI50 [7]: 3080 nM | TGI [7]: > 62500 nM | GI50 [8]: 7160 nM | TGI [8]: 49.9 µM | GI50 [9]: 5210 nM | TGI [9]: 34.6 µM | GI50 [10]: 18.1 µM | TGI [10]: > 62.5 µM

Nc1ncnc2c1c(-c1ccc(Oc3ccccc3)cc1)nn2CC1SSCC1O (stereo not given)
GI50 [1]: 1910 nM | TGI [1]: 6.34 µM | GI50 [2]: 1270 nM | TGI [2]: 6.36 µM | GI50 [3]: 2740 nM | TGI [3]: 9.62 µM | GI50 [4]: 1290 nM | TGI [4]: 5.07 µM | GI50 [5]: 5790 nM | TGI [5]: 14.9 µM | GI50 [6]: 4970 nM | TGI [6]: 15.2 µM | GI50 [7]: 251 nM | TGI [7]: 2110 nM | GI50 [8]: 5100 nM | TGI [8]: 11.6 µM | GI50 [9]: 6610 nM | TGI [9]: 17.6 µM | GI50 [10]: 7.51 µM | TGI [10]: 23.3 µM

CCOC(=O)c1cc(C(=O)c2ccc(OC)c(OC)c2)n2c1ccc1ccc3cccnc3c12
GI50 [1]: 7200 nM | TGI [1]: > 100 µM | GI50 [2]: 1420 nM | TGI [2]: 23 µM | GI50 [4]: 836 nM | TGI [4]: 37.7 µM | GI50 [5]: 2040 nM | TGI [5]: > 100 µM | GI50 [6]: 5460 nM | TGI [6]: > 100 µM | GI50 [7]: 807 nM | TGI [7]: > 100000 nM | GI50 [8]: 2820 nM | TGI [8]: > 100 µM | GI50 [9]: 948 nM | TGI [9]: > 100 µM | GI50 [10]: 3.73 µM | TGI [10]: > 100 µM

C[C@]12CCc3nc(Nc4ccc(O)cc4)sc3C1=CC[C@@H]1[C@@H]2CC[C@]2(C)/C(=N/NC(N)=S)CC[C@@H]12
GI50 [1]: 2130 nM | TGI [1]: 4.35 µM | GI50 [3]: 1230 nM | TGI [3]: 2.69 µM | GI50 [4]: 1660 nM | TGI [4]: 3.14 µM | GI50 [5]: 680 nM | TGI [5]: 2.46 µM | GI50 [6]: 1530 nM | TGI [6]: 3.37 µM | GI50 [7]: 454 nM | TGI [7]: > 100000 nM | GI50 [8]: 2090 nM | TGI [8]: 4.9 µM | GI50 [9]: 2380 nM | TGI [9]: 7.51 µM | GI50 [10]: 1.74 µM | TGI [10]: 4.55 µM

CCN(CC)CCCC(Nc1c2ccc(Cl)cc2nc2ccc(OC)cc12)c1ccc(Cl)cc1 (stereo not given)
GI50 [1]: 1620 nM | TGI [1]: 3.14 µM | GI50 [2]: 450 nM | TGI [2]: 1.75 µM | GI50 [3]: 1030 nM | TGI [3]: 2.31 µM | GI50 [4]: 1250 nM | TGI [4]: 2.54 µM | GI50 [5]: 1160 nM | TGI [5]: 2.44 µM | GI50 [7]: 217 nM | TGI [7]: 512 nM | GI50 [8]: 1260 nM | TGI [8]: 2.64 µM | GI50 [9]: 1470 nM | TGI [9]: 3.08 µM | GI50 [10]: 1.05 µM | TGI [10]: 2.47 µM

COc1cc([C@@H]2c3cc4c(cc3[C@H](SC(=N)N)[C@H]3COC(=O)[C@H]23)OCO4)cc(OC)c1OC
GI50 [1]: 2480 nM | TGI [1]: > 78.9 µM | GI50 [2]: 217 nM | GI50 [3]: 2300 nM | TGI [3]: 35.6 µM | GI50 [4]: 201 nM | TGI [4]: 0.649 µM | GI50 [5]: 477 nM | TGI [5]: > 100 µM | GI50 [6]: 621 nM | TGI [6]: > 100 µM | GI50 [7]: 89.7 nM | TGI [7]: > 100000 nM | GI50 [9]: 253 nM | TGI [9]: > 100 µM | GI50 [10]: 0.348 µM | TGI [10]: > 100 µM
